Our source for the IC50, Amax and GI50 values is patent US20230092679A1, “MCL-1 INHIBITOR ANTIBODY-DRUG CONJUGATES AND METHODS OF USE” (NOVARTIS AG, priority 2019, published 2023).

Type in all cases: cell-based
The test system of one assay is KMS-20. Nature of the assay: CellTiter-Glo proliferation assay, anti-CD48 ADCs (Example 18). To be noted: KMS-20, 5 days. The protocol: (§1) The CD48 MCL-1 antibody drug conjugate CD48-L7-P1, isotype IgG1-L7-P1 ADC, and MCL-1 free payload P1 were tested against four endogenous cancer cell lines. KMS-21 BM (JCRB No. JCRB11185 cultured in RPMI-1640+10% FBS), KMS-20 (JCRB No. JCRB1196 cultured in RPMI-1640+10% FBS), KMS-27 (JCRB No. JCRB1188 cultured in RPMI-1640+10% FBS), and NCI-H929 (ATCC No. CRL-9068 cultured in RPMI-1640+10% FBS+0.05 mM 2-mercaptoethanol).
(§2) The ability of the CD48 MCL-1 antibody drug conjugate CD48-L7-P1, isotype IgG1-L7-P1 ADC, and MCL-1 free payload P1 to inhibit cell proliferation and survival was assessed using the Promega CellTiter-Glo® proliferation assay.
(§3) Cell lines were cultured in media that is optimal for their growth at 5% CO2, 37° C. in a tissue culture incubator. Prior to seeding for the proliferation assay, the cells were split at least 2 days before the assay to ensure optimal growth density. On the day of seeding, suspension cells were harvested. Cell viability and cell density were determined using a cell counter (Vi-Cell XR Cell Viability Analyzer, Beckman Coulter). […] Cells were seeded at a density of 1,000 cells per well in 45 μL of standard growth media. Plates were incubated at 5% CO2, 37° C. overnight in a tissue culture incubator. The next day, free MCL-1 payload (P1), targeting MCL-1 ADC, and non-targeting isotype ADCs were prepared at 10× in standard growth media. The prepared drug treatments were then added to the cells resulting in final concentrations of 0.0005-500 nM and a final volume of 50 μL per well. Each drug concentration was tested in quadruplets. Plates were incubated at 5% CO2, 37° C. for 5 days in a tissue culture incubator, after which cell viability was assessed through the addition of 25 μL of CellTiter Glo® (Promega, cat #G7573), a reagent which lyses cells and measures total adenosine triphosphate (ATP) content. Plates were incubated at room temperature for 10 minutes to stabilize luminescent signals prior to reading using a luminescence reader (EnVision Multilabel Plate Reader, PerkinElmer). To evaluate the effect of the drug treatments, luminescent counts from wells containing untreated cells (100% viability) were used to normalize treated samples. A variable slope model was applied to fit a nonlinear regression curve to the data in GraphPad PRISM version 7.02 software. IC50 and Amax values were extrapolated from the resultant curves.
(§4) The dose response curves of representative cancer cell lines expressing the CD48 target of interest are shown in FIG. 22 (square=CD48-L7-P1, circle IgG-L7-P1, triangle=free MCL1 payload P1).

Another assay concerns KMS-21 BM. The assay is described as above. The note with it: 5 days. Here is the method: as §1, §2, §3, §4
The test system of another assay is KMS-27. The description is as above. The note with it: KMS-27, 5 days. Here is the method: as §1, §2, §3, §4
The test system of another assay is NCI-H929. The description is as above. To be noted: NCI-H929, 5 days. The protocol:
as §1, §2, §3, §4

Another assay concerns p31fuj. Nature of the assay: In vitro ADC activity, AML cell lines, CellTiter-Glo (Example 20). To be noted: 5 days.

SMILES strings stand for the structures.

Broadly, the IC50 is the midpoint of a concentration-inhibition curve. Read a low IC50 as inhibition by little substance. A word on the GI50: it is the concentration giving 50% growth inhibition. In the case of `COc1ccccc1-c1nccc(COc2ccccc2C[C@@H](Oc2ncnc3sc(-c4ccc(F)cc4)c(-c4ccc(OCCN5CCN(C)CC5)c(Cl)c4C)c23)C(=O)O)n1` [P1, (2R)-2-[5-[3-chloro-2-methyl-4-[2-(4-methylpiperazin-1-yl)ethoxy]phenyl]-6-(4-fluorophenyl)thieno[2,3-d]pyrimidin-4-yl]oxy-3-[2-[[2-(2-methoxyphenyl)pyrimidin-4-yl]methoxy]phenyl]propanoic acid], the IC50 with KMS-20 (120 h) was determined as 4.95 nM; with KMS-21 BM (120 h), 0.941 nM; in the assay on KMS-27 (120 h), 6.98 nM; with NCI-H929 (Homo sapiens, 120 h), 2.04 nM. Moreover, the Amax with KMS-20 (in %) is 94.34; with KMS-21 BM (in %), 85.27; in the assay on KMS-27 (in %) it was 88.98; with NCI-H929 (in %), 109.1; in the assay on p31fuj (in % (unit assumed)), −73. In the assay with p31fuj (Homo sapiens, P31-FUJ, 120 h), the GI50 came to 116 nM.
